Values of other authors, collected in patent US20040248850A1, “Compounds for the treatment of HIV infection” (Kemia, Inc., priority 2003, published 2004).

Tested on: Human Immunodeficiency Virus Type 1
Settings: in cell culture

enfuvirtide
EC50: 1 ng/mL
